Our source for the IC50 values is US9012642B2, “Pyrrolopyridinone compounds and methods for treating HIV” (ViiV Healthcare UK Limited, priority 2011, dated 2015).

For the assay, the system named is HIV. In words: HIV MT4 Assay (antiviral HIV activity in MT-4 cells). The class given is cell-based. Here is the method: Antiviral HIV activity and cytotoxicity values for compounds of the invention from Table 1 were measured in parallel in the HTLV-1 transformed cell line MT-4 based on the method previously described (Hazen et al., 2007, In vitro antiviral activity of the novel, tyrosyl-based human immunodeficiency virus (HIV) type 1 protease inhibitor brecanavir (GW640385) in combination with other antiretrovirals and against a panel of protease inhibitor-resistant HIV (Hazen et al., “In vitro antiviral activity of the novel, tyrosyl-based human immunodeficiency virus (HIV) type 1 protease inhibitor brecanavir (GW640385) in combination with other antiretrovirals and against a panel of protease inhibitor-resistant HIV”, Antimicrob. Agents Chemother. 2007, 51: 3147-3154; and Pauwels et al., “Sensitive and rapid assay on MT-4 cells for the detection of antiviral compounds against the AIDS virus”, (J. of Virological Methods 1987, 16: 171-185).
Luciferase activity was measured 96 hours later by adding a cell titer glo (Promega, Madison, Wis.). Percent inhibition of cell protection data was plotted relative to no compound control. Under the same condition, cytotoxicity of the compounds was determined using cell titer Glo™ (Promega, Madison, Wis.). IC50s were determined from a 10 point dose response curve using 3-4-fold serial dilution for each compound, which spans a concentration range >1000 fold.
These values are plotted against the molar compound concentrations using the standard four parameter logistic equation: y=((Vmax*x^n)/(K^n+x^n))+Y^2
Y^2=minimum y n=slope factor
Vmax=maximum y x=compound concentration [M]

The mark [1] stands for this setting: Human immunodeficiency virus 1, MT4, HTLV-1 transformed cell line MT-4, luciferase activity measured 96 hours later, Table 3, read-out: HIV MT4 Assay IC50.
Setting [2] is: MT4, 96 h, read-out: MT4 (IC50).

Structures can show the parent of a compound that is named as a salt. Where two headings read alike, the source gives them in different places.

In general, IC50 refers to the point on the concentration scale where inhibition reaches its midpoint.

On to `Cc1ccc(-c2c(C(OC(C)(C)C)C(=O)O)n(C)c(=O)c3c2ccn3Cc2ccc(S(C)(=O)=O)cc2)cc1` (stereo not shown) [Example 27, 2-(tert-butoxy)-2-(6-methyl-1-(4-(methylsulfonyl)benzyl)-7-oxo-4-(p-tolyl)-6,7-dihydro-1H-pyrrolo[2,3-c]pyridin-5-yl)acetic acid], for which the IC50 is, setting by setting: under setting [1], 3850 nM; under setting [2], 3850 nM.
For the molecule `Cc1ccc(-c2c(C(OC(C)(C)C)C(=O)O)n(C)c(=O)c3c2ccn3Cc2ccc(F)c(F)c2)cc1` (stereo not shown) [Example 28, 2-(tert-butoxy)-2-(1-(3,4-difluorobenzyl)-6-methyl-7-oxo-4-(p-tolyl)-6,7-dihydro-1H-pyrrolo[2,3-c]pyridin-5-yl)acetic acid], the IC50 under setting [1] worked out at 80 nM and the IC50 under setting [2] is 80 nM.
As for `COc1ccc(Cn2ccc3c(-c4ccc(C)cc4)c(C(OC(C)(C)C)C(=O)O)n(C)c(=O)c32)cc1` (stereo not shown) [Example 29, 2-(tert-butoxy)-2-(1-(4-methoxybenzyl)-6-methyl-7-oxo-4-(p-tolyl)-6,7-dihydro-1H-pyrrolo[2,3-c]pyridin-5-yl)acetic acid], the IC50 reads like this: under setting [1], 170 nM; under setting [2], 170 nM.
Regarding `Cc1ccc(-c2c(C(OC(C)(C)C)C(=O)O)n(C)c(=O)c3c2ccn3C)cc1` (stereo not shown) [Example 30, 2-(tert-butoxy)-2-(1,6-dimethyl-7-oxo-4-(p-tolyl)-6,7-dihydro-1H-pyrrolo[2,3-c]pyridin-5-yl)acetic acid], the IC50 runs as follows: under setting [1], 1100 nM; under setting [2], 1100 nM.
For `Cc1ccc(-c2c(C(OC(C)(C)C)C(=O)O)n(C)c(=O)c3c2ccn3Cc2ccc(Cl)c(F)c2)cc1` (stereo not shown) [Example 31, 2-(tert-butoxy)-2-(1-(4-chloro-3-fluorobenzyl)-6-methyl-7-oxo-4-(p-tolyl)-6,7-dihydro-1H-pyrrolo[2,3-c]pyridin-5-yl)acetic acid], the IC50 runs as follows: under setting [1], 110 nM; under setting [2], 110 nM.
On to `Cc1ccc(-c2c(C(OC(C)(C)C)C(=O)O)n(C)c(=O)c3c2ccn3Cc2cc(F)c(F)c(F)c2)cc1` (stereo not shown) [Example 32, 2-(tert-butoxy)-2-(6-methyl-7-oxo-4-(p-tolyl)-1-(3,4,5-trifluorobenzyl)-6,7-dihydro-1H-pyrrolo[2,3-c]pyridin-5-yl)acetic acid], for which the IC50 is, setting by setting: under setting [1], 80 nM; under setting [2], 80 nM.
For `Cc1ccc(-c2c(C(OC(C)(C)C)C(=O)O)n(C)c(=O)c3c2ccn3Cc2ccc3c(c2)OCO3)cc1` (stereo not shown) [Example 33, 2-(1-(benzo[d][1,3]dioxol-5-ylmethyl)-6-methyl-7-oxo-4-(p-tolyl)-6,7-dihydro-1H-pyrrolo[2,3-c]pyridin-5-yl)-2-(tert-butoxy)acetic acid], the IC50 under setting [1] stood at 210 nM and the IC50 under setting [2] was found to be 210 nM.
`Cc1ccc(-c2c(C(OC(C)(C)C)C(=O)O)n(C)c(=O)c3c2ccn3-c2ccc(F)cc2)cc1` (stereo not shown) [Example 34, 2-(tert-butoxy)-2-(1-(4-fluorophenyl)-6-methyl-7-oxo-4-(p-tolyl)-6,7-dihydro-1H-pyrrolo[2,3-c]pyridin-5-yl)acetic acid]: the IC50 is, setting by setting: under setting [1], 770 nM; under setting [2], 770 nM.
On to `Cc1ccc(-c2c(C(OC(C)(C)C)C(=O)O)n(C)c(=O)c3c2ccn3CC(=O)Nc2ccc(F)cc2)cc1` (stereo not shown) [Example 35, 2-(tert-butoxy)-2-(1-(2-((4-fluorophenyl)amino)-2-oxoethyl)-6-methyl-7-oxo-4-(p-tolyl)-6,7-dihydro-1H-pyrrolo[2,3-c]pyridin-5-yl)acetic acid], for which the IC50 under setting [1] was 1000 nM and the IC50 under setting [2] came to 1000 nM.
For `COc1ccc(-c2c(C(OC(C)(C)C)C(=O)O)n(C)c(=O)c3c2ccn3Cc2ccc(F)cc2)cc1` (stereo not shown) [Example 36, 2-(tert-butoxy)-2-(1-(4-fluorobenzyl)-4-(4-methoxyphenyl)-6-methyl-7-oxo-6,7-dihydro-1H-pyrrolo[2,3-c]pyridin-5-yl)acetic acid], the IC50 under setting [1] was 60 nM and the IC50 under setting [2] was found to be 60 nM.
As for `Cn1c(C(OC(C)(C)C)C(=O)O)c(-c2ccc(F)cc2)c2ccn(Cc3ccc(F)cc3)c2c1=O` (stereo not shown) [Example 37, 2-(tert-butoxy)-2-(1-(4-fluorobenzyl)-4-(4-fluorophenyl)-6-methyl-7-oxo-6,7-dihydro-1H-pyrrolo[2,3-c]pyridin-5-yl)acetic acid], the IC50 was determined as 670 nM under setting [1] and 670 nM under setting [2].
Turning to `Cc1c(-c2c(C(OC(C)(C)C)C(=O)O)n(C)c(=O)c3c2ccn3Cc2ccccc2)ccc2c1CCCO2` (stereo not shown) [Example 38, 2-(1-benzyl-6-methyl-4-(5-methylchroman-6-yl)-7-oxo-6,7-dihydro-1H-pyrrolo[2,3-c]pyridin-5-yl)-2-(tert-butoxy)acetic acid], the IC50 came to 70 nM under setting [1] and 70 nM under setting [2].
As for `Cc1c(-c2c(C(OC(C)(C)C)C(=O)O)n(C)c(=O)c3c2ccn3C)ccc2c1CCCO2` (stereo not shown) [Example 40, 2-(tert-butoxy)-2-(1,6-dimethyl-4-(5-methylchroman-6-yl)-7-oxo-6,7-dihydro-1H-pyrrolo[2,3-c]pyridin-5-yl)acetic acid], the IC50 is 500 nM under setting [1] and 500 nM under setting [2].
`Cc1c(-c2c(C(OC(C)(C)C)C(=O)O)n(C)c(=O)c3c2ccn3Cc2ccccn2)ccc2c1CCCO2` (stereo not shown) [Example 42, 2-(tert-butoxy)-2-(6-methyl-4-(5-methylchroman-6-yl)-7-oxo-1-(pyridin-2-ylmethyl)-6,7-dihydro-1H-pyrrolo[2,3-c]pyridin-5-yl)acetic acid]: the IC50 came to 540 nM under setting [1] and 540 nM under setting [2].
`COCCn1ccc2c(-c3ccc4c(c3C)CCCO4)c(C(OC(C)(C)C)C(=O)O)n(C)c(=O)c21` (stereo not shown) [Example 43, 2-(tert-butoxy)-2-(1-(2-methoxyethyl)-6-methyl-4-(5-methylchroman-6-yl)-7-oxo-6,7-dihydro-1H-pyrrolo[2,3-c]pyridin-5-yl)acetic acid]: the IC50 is, setting by setting: under setting [1], 1100 nM; under setting [2], 1100 nM.
In the case of `Cc1c(-c2c(C(OC(C)(C)C)C(=O)O)n(C)c(=O)c3c2ccn3Cc2ccc(Cl)cc2)ccc2c1CCCO2` (stereo not shown) [Example 44, 2-(tert-butoxy)-2-(1-(4-chlorobenzyl)-6-methyl-4-(5-methylchroman-6-yl)-7-oxo-6,7-dihydro-1H-pyrrolo[2,3-c]pyridin-5-yl)acetic acid], the IC50 is, setting by setting: under setting [1], 50 nM; under setting [2], 50 nM.
Consider `Cc1c(-c2c(C(OC(C)(C)C)C(=O)O)n(C)c(=O)c3c2ccn3Cc2cccc(F)c2)ccc2c1CCCO2` (stereo not shown) [Example 45, 2-(tert-butoxy)-2-(1-(3-fluorobenzyl)-6-methyl-4-(5-methylchroman-6-yl)-7-oxo-6,7-dihydro-1H-pyrrolo[2,3-c]pyridin-5-yl)acetic acid], for which the IC50 runs as follows: under setting [1], 80 nM; under setting [2], 80 nM.
As for `Cc1c(-c2c(C(OC(C)(C)C)C(=O)O)n(C)c(=O)c3c2ccn3Cc2ccc(C(F)(F)F)cc2)ccc2c1CCCO2` (stereo not shown) [Example 46, 2-(tert-butoxy)-2-(6-methyl-4-(5-methylchroman-6-yl)-7-oxo-1-(4-(trifluoromethyl)benzyl)-6,7-dihydro-1H-pyrrolo[2,3-c]pyridin-5-yl)acetic acid], the IC50 was 90 nM under setting [1] and 90 nM under setting [2].
For `Cc1c(-c2c(C(OC(C)(C)C)C(=O)O)n(C)c(=O)c3c2ccn3Cc2ccc([N+](=O)[O-])cc2)ccc2c1CCCO2` (stereo not shown) [Example 47, 2-(tert-butoxy)-2-(6-methyl-4-(5-methylchroman-6-yl)-1-(4-nitrobenzyl)-7-oxo-6,7-dihydro-1H-pyrrolo[2,3-c]pyridin-5-yl)acetic acid], the IC50 is, setting by setting: under setting [1], 40 nM; under setting [2], 40 nM.
With `Cc1c(-c2c(C(OC(C)(C)C)C(=O)O)n(C)c(=O)c3c2ccn3Cc2cc(F)ccc2F)ccc2c1CCCO2` (stereo not shown) [Example 48, 2-(tert-butoxy)-2-(1-(2,5-difluorobenzyl)-6-methyl-4-(5-methylchroman-6-yl)-7-oxo-6,7-dihydro-1H-pyrrolo[2,3-c]pyridin-5-yl)acetic acid], the IC50 under setting [1] was determined as 30 nM and the IC50 under setting [2] stood at 30 nM.
For `Cc1ccc(Cn2ccc3c(-c4ccc5c(c4C)CCCO5)c(C(OC(C)(C)C)C(=O)O)n(C)c(=O)c32)cc1F` (stereo not shown) [Example 49, 2-(tert-butoxy)-2-(1-(3-fluoro-4-methylbenzyl)-6-methyl-4-(5-methylchroman-6-yl)-7-oxo-6,7-dihydro-1H-pyrrolo[2,3-c]pyridin-5-yl)acetic acid], the IC50 turned out to be 40 nM under setting [1] and 40 nM under setting [2].
Turning to `Cc1c(-c2c(C(OC(C)(C)C)C(=O)O)n(C)c(=O)c3c2ccn3Cc2cscn2)ccc2c1CCCO2` (stereo not shown) [Example 50, 2-(tert-butoxy)-2-(6-methyl-4-(5-methylchroman-6-yl)-7-oxo-1-(thiazol-4-ylmethyl)-6,7-dihydro-1H-pyrrolo[2,3-c]pyridin-5-yl)acetic acid, Trifluoroacetic acid salt], the IC50 came to 230 nM under setting [1] and 230 nM under setting [2].
Take `Cc1c(-c2c(C(OC(C)(C)C)C(=O)O)n(C)c(=O)c3c2ccn3CC2CCCCC2)ccc2c1CCCO2` (stereo not shown) [Example 51, 2-(tert-butoxy)-2-(1-(cyclohexylmethyl)-6-methyl-4-(5-methylchroman-6-yl)-7-oxo-6,7-dihydro-1H-pyrrolo[2,3-c]pyridin-5-yl)acetic acid]: the IC50 reads like this: under setting [1], 100 nM; under setting [2], 100 nM.
